Experimental data as given in article PMC12436592 (Nature Communications, 2025).
Values joined by “and” are separate entries in the source; they are usually repeats but may differ in a detail not shown here. Equal values may be shown once.

Legend:
[1] = biological target: T1, hP2X3R (Homo sapiens, UniProt P56373, S15V); assay: Calcium influx assay, 1321N1 astrocytoma cells, ATP EC80; assay type: cell-based
T1 construct: expressed in transfected cells; host or cells: 1321N1 astrocytoma cells, retroviral expression system
T1 sequence (P56373 1-397 S15V): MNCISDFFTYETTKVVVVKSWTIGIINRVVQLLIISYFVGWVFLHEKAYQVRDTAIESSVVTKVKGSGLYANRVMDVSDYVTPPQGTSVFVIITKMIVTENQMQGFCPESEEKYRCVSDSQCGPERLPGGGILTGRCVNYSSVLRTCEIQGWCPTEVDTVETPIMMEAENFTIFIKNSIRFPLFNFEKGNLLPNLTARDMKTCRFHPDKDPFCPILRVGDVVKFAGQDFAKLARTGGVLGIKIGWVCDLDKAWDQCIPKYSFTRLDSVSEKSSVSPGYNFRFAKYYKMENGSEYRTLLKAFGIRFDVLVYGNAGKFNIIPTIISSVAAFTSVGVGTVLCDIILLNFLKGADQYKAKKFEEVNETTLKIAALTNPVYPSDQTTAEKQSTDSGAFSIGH
From the text: For 1321N1 astrocytoma cells stably expressing the human, rat, or mouse P2X7Rs, or hP2X2Rs or hP2X4Rs, the fluorescent Ca^2+-chelating dye Fluo-4 acetoxymethyl ester (Fluo-4 AM, Thermo Fisher Scientific, Dreieich, Germany) was used. For 1321N1 astrocytoma cell lines recombinantly expressing the hP2X1Rs or hP2X3Rs, the FLIPR® Calcium 5 Assay Kit (Molecular Devices, San José, CA, USA) was employed. Human, rat, and mouse P2X7Rs as well as hP2X1Rs, hP2X2Rs, hP2X3Rs, and hP2X4Rs were recombinantly expressed in 1321N1 astrocytoma cells using a retroviral expression system[72]–[74].
On the first day, 45,000 cells per well (30,000 cells for the human P2X3 receptor-expressing cells) were seeded into a 96-well polystyrene microplate with a black, flat bottom in a final volume of 200 µL. After overnight incubation at 37 °C and 10% CO2 (5% CO2 for the human P2X3R-expressing cell line), the medium was removed by inverting the plate, and the cells were loaded with dye solution. Hanks’ balanced salt solution (HBSS, Thermo Fisher Scientific, Dreieich, Germany) was used as the assay buffer for human P2X1R, P2X2R, P2X3R, and P2X4R. For the P2X7Rs, a different assay buffer was used: 150 mM sodium-glutamate, 5 mM KCl, 0.5 mM CaCl2, 0.1 mM MgCl2, 10 mM D-glucose, 25 mM 4-(2-hydroxyethyl)-1-piperazineethanesulfonic acid (HEPES), pH 7.4. The dye solutions were freshly prepared. The Fluo-4 AM solution contained 3 µM of Fluo-4 AM in assay buffer and 1% of the non-ionic detergent Pluronic F-127® (Sigma-Aldrich, Taufkirchen, Germany). The Calcium 5 dye, used for hP2X1Rs and hP2X3Rs, was prepared in HBSS buffer. Cells were loaded with Fluo-4 AM and incubated for 1 h at room temperature with gentle shaking (100 rpm), while those loaded with the Calcium 5 dye were incubated for 1 h at 37 °C. After incubation, the dye solution was carefully removed from the plate, and buffer was added to the cells for the evaluation of agonists. […] The agonist solution was prepared in a 96-well transparent plate, obtaining the respective EC80 values. As a control, assay buffer without the test compound was used. After 30 min of incubation with antagonist, the plates were measured using a fluorescence imaging plate reader NOVOstar (BMG Labtech GmbH, Offenburg, Germany) at an excitation wavelength of 485 nm and an emission wavelength of 520 nm, for 30 s at 0.4 s intervals. Calcium influx measurements were then initiated by automatic addition of 20 µL of agonist solution by the plate reader’s pipetting device. Data were analyzed using Microsoft Excel and GraphPad Prism (Version 8.0, San Diego, CA, USA). EC80 and IC50 values were calculated using nonlinear regression with a sigmoidal dose-response equation.

[2] = biological target: T2, hP2X1R (Homo sapiens, UniProt P51575); assay: as above; assay type: cell-based; conditions: 1321-N1, read-out: % inhibition ± SD at 10 μM, hP2X1R, 10 μM antagonist, ATP 100 nM
T2 sequence (P51575 51-338 limits assumed): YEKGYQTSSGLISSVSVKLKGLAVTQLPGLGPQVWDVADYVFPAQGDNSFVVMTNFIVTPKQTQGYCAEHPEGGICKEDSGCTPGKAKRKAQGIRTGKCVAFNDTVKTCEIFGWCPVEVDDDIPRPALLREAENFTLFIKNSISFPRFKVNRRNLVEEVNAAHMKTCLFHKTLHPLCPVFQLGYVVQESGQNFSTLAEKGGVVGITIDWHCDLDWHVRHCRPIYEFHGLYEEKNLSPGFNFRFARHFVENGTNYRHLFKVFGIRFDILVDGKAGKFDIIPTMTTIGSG
From the text: . For 1321N1 astrocytoma cells stably expressing the human, rat, or mouse P2X7Rs, or hP2X2Rs or hP2X4Rs, the fluorescent Ca^2+-chelating dye Fluo-4 acetoxymethyl ester (Fluo-4 AM, Thermo Fisher Scientific, Dreieich, Germany) was used. For 1321N1 astrocytoma cell lines recombinantly expressing the hP2X1Rs or hP2X3Rs, the FLIPR® Calcium 5 Assay Kit (Molecular Devices, San José, CA, USA) was employed. Human, rat, and mouse P2X7Rs as well as hP2X1Rs, hP2X2Rs, hP2X3Rs, and hP2X4Rs were recombinantly expressed in 1321N1 astrocytoma cells using a retroviral expression system[72]–[74].
On the first day, 45,000 cells per well (30,000 cells for the human P2X3 receptor-expressing cells) were seeded into a 96-well polystyrene microplate with a black, flat bottom in a final volume of 200 µL. […] After 30 min of incubation with antagonist, the plates were measured using a fluorescence imaging plate reader NOVOstar (BMG Labtech GmbH, Offenburg, Germany) at an excitation wavelength of 485 nm and an emission wavelength of 520 nm, for 30 s at 0.4 s intervals. Calcium influx measurements were then initiated by automatic addition of 20 µL of agonist solution by the plate reader’s pipetting device. Data were analyzed using Microsoft Excel and GraphPad Prism (Version 8.0, San Diego, CA, USA). EC80 and IC50 values were calculated using nonlinear regression with a sigmoidal dose-response equation.

- inhibition at 10 µM ([1]; 1321-N1, read-out: % inhibition ± SD at 10 μM, hP2X3R, 10 μM antagonist, ATP 100 nM): 86 ± 9%
- fold more potent at the hP2X7R versus the hP2X3R ([1]; calcium influx IC50 ratio): 40 fold
- IC50 ([1]; calcium influx, estimated): 707 ± 185 nM
- inhibition at 10 µM [2]: 36 ± 8%
Compound: O=C(NNc1ccccc1Cl)C12CC3CC(CC(C3)C1)C2 [UB-ALT-P30, reference compound]
- hP2X3R inhibition at 10 μM ([1]; Log(c) M -5, single values, 10 µM, in % (unit assumed)): 94.9053 and 93.1871 and 60.8032 and 85.3564 and 91.979 and 90.698 and 90.7697 and 79.3438
- hP2X3R inhibition, IC50 curve ([1]; Log(c) M -6, in %): 58.8384 and 67.0023 and 59.1901 and 77.3652
